Data as given in US6924278B2, “Aroyl-piperazine derivatives, their preparation and their use as tachykinin antagonists” (Fujisawa Pharmaceutical Co., Ltd., priority 1997, dated 2005).
Structures can show the parent of a compound that is named as a salt.

system: not given; assay: not given; settings: not given

Q: Which melting point does the source give for `Cl.Cl.O=C(c1cc(C(F)(F)F)cc(C(F)(F)F)c1)N1CCN(CC#Cc2cccnc2)C[C@H]1Cc1ccc2ccccc2c1` here?
A: Its melting point is 140 to 150 °C.

Q: For `Cl.Cl.O=C(c1cc(C(F)(F)F)cc(C(F)(F)F)c1)N1CCN(C/C=C\c2cccnc2)C[C@H]1Cc1ccc2ccccc2c1`, which melting point is on record?
A: The melting point was 130 to 150 °C.

Q: With `Cl.Cl.O=C(c1cc(C(F)(F)F)cc(C(F)(F)F)c1)N1CCN(CCCc2cccnc2)C[C@H]1Cc1ccc2ccccc2c1` as the compound, how does the melting point read?
A: The melting point was 138 to 148 °C.

Q: With `Cc1ccc(C[C@@H]2CN(CC#CCN3CCSCC3)CCN2C(=O)c2cc(Cl)cc(Cl)c2)cc1C.Cl.Cl` as the compound, how does the melting point read?
A: The melting point was 128 °C (dec.).

Q: Which melting point does the source give for `Cl.Cl.O=C(c1cc(Cl)cc(Cl)c1)N1CCN(CC#CCN2CCSCC2)C[C@H]1Cc1c[nH]c2ccccc12` here?
A: Its melting point is 175 °C (dec.).

Q: For `Cl.Cl.O=C(c1cc(Cl)cc(Cl)c1)N1CCN(CC#CCN2CCOCC2)C[C@H]1Cc1c[nH]c2ccccc12`, which melting point is on record?
A: Its melting point is 165 °C (dec.).

Q: For `Cl.Cl.O=C(c1cc(Cl)cc(Cl)c1)N1CCN(CC#CCN2CCOCC2)C[C@H]1Cc1ccc(C(F)(F)F)cc1`, which melting point is on record?
A: Its melting point is 186 °C (dec.).

Q: Which melting point does the source give for `Cl.Cl.O=C(c1cc(C(F)(F)F)cc(C(F)(F)F)c1)N1CCN(CCCCc2cccnc2)C[C@H]1Cc1c[nH]c2ccccc12` here?
A: The melting point was 140 to 145 °C.

Q: For `Cc1ccc(C[C@@H]2CN(CC#CCN3CCOC[C@@H]3CC(C)C)CCN2C(=O)c2cc(C(F)(F)F)cc(C(F)(F)F)c2)cc1C.Cl.Cl`, which melting point is on record?
A: The melting point was 125 to 138 °C.

Q: For `COc1ccncc1C#CCN1CCN(C(=O)c2cc(C(F)(F)F)cc(C(F)(F)F)c2)[C@H](Cc2c[nH]c3ccccc23)C1.Cl.Cl`, which melting point is on record?
A: Its melting point is 162 to 167 °C.

Q: For `Cc1ccc(C[C@@H]2CN(CC#Cc3ccc(N)nc3)CCN2C(=O)c2cc(C(F)(F)F)cc(C(F)(F)F)c2)cc1C.Cl.Cl`, which melting point is on record?
A: The melting point was 183 to 189 °C.

Q: With `COc1ccc(CCCN2CCN(C(=O)c3cc(C(F)(F)F)cc(C(F)(F)F)c3)[C@H](Cc3ccc(C)c(C)c3)C2)cn1.Cl.Cl` as the compound, how does the melting point read?
A: The melting point was 127 to 137 °C.

Q: For `COc1ccc(CCCN2CCN(C(=O)c3cc(C(F)(F)F)cc(C(F)(F)F)c3)[C@H](Cc3c[nH]c4ccccc34)C2)cn1.Cl.Cl`, which melting point is on record?
A: The melting point was 195 to 200 °C.

Q: For `Cc1ccc(C[C@@H]2CN(CCCn3cccn3)CCN2C(=O)c2cc(C(F)(F)F)cc(C(F)(F)F)c2)cc1C.Cl`, which melting point is on record?
A: The melting point was 73 to 75 °C.

Q: Which melting point does the source give for `CCOC[C@H]1COCCN1CC#CCN1CCN(C(=O)c2cc(C(F)(F)F)cc(C(F)(F)F)c2)[C@H](Cc2ccc(C)c(C)c2)C1.Cl.Cl` here?
A: Its melting point is 155 to 160 °C.

Q: With `Cc1ccc(C[C@@H]2CN(CC#CCN3CCOC[C@@H]3CO)CCN2C(=O)c2cc(C(F)(F)F)cc(C(F)(F)F)c2)cc1C.Cl.Cl` as the compound, how does the melting point read?
A: The melting point was 130 to 150 °C.

Q: With `COCC1CN(CCN2CCN(C(=O)c3cc(C(F)(F)F)cc(C(F)(F)F)c3)[C@H](Cc3ccc(C)c(C)c3)C2)CCO1.Cl.Cl` (stereo partly drawn) as the compound, how does the melting point read?
A: The melting point was 150 to 154 °C.

Q: Which melting point does the source give for `COC[C@@H]1COCCN1CCN1CCN(C(=O)c2cc(C(F)(F)F)cc(C(F)(F)F)c2)[C@H](Cc2c[nH]c3ccccc23)C1.Cl.Cl` here?
A: The melting point was 130 to 150 °C.

Q: For `C[C@H]1COC[C@H](C)N1CCN1CCN(C(=O)c2cc(C(F)(F)F)cc(C(F)(F)F)c2)[C@H](Cc2c[nH]c3ccccc23)C1.Cl.Cl`, which melting point is on record?
A: Its melting point is 170 to 180 °C.

Q: For `CNc1cccc(CC2CN(CC#CCN3CCOCC3(C)C)CCN2C(=O)c2cc(C(F)(F)F)cc(C(F)(F)F)c2)c1` (stereo not drawn) (as salt: hydrochloride) [Example 93, 1-[3,5-Bis(trifluoromethyl)benzoyl]-4-[4-(3,3-dimethylmorpholino)-2-butynyl]-2-[3-(N-methylamino)benzyl]piperazine], which melting point is on record?
A: Its melting point is 192 to 195 °C.

Q: Which melting point does the source give for `Cc1ccc(C[C@@H]2CN(Cc3cnn(CC(=O)O)c3)CCN2C(=O)c2cc(C(F)(F)F)cc(C(F)(F)F)c2)cc1C` [Example 47, (2R)-1-[3,5-bis(trifluoromethyl)benzoyl]-4-[[1-(carboxymethyl)-1H-pyrazol-4-yl]methyl]-2-(3,4-dimethylbenzyl)piperazine] here?
A: The melting point was 223 to 230 °C.

target: T1, h-NK1 receptors (Homo sapiens, UniProt P25103); assay: Evaluation of NK1 antagonist transport efficiency to the central nervous system using a h-NK1 receptor binding assay (brain extract after i.v. dosing of rats); settings: 5 min; compound extracted from brain of male SD rats 5 min after i.v. injection at the dose of 1 mg/kg; CHO cell membranes expressing h-NK1; read-out: inhibition rate of 125I-BH-Substance P binding to h-NK1 receptors
T1 construct: expressed in transfected cells; host or cells: CHO cells (permanent expression), crude cell membranes
T1 sequence (P25103 whole entry): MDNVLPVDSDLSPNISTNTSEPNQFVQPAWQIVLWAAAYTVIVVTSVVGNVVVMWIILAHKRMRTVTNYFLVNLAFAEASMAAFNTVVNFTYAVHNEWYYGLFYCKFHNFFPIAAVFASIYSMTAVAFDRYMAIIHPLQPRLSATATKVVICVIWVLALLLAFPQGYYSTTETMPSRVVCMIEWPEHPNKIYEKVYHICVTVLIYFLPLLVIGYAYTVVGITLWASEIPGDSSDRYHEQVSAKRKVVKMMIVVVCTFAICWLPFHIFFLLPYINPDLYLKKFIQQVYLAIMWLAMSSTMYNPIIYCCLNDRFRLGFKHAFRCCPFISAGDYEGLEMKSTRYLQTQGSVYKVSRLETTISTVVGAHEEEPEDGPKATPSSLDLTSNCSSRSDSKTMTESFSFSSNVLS
Description: A. Evaluation of NK1 Antagonist Transport Efficiency to the Cental Nervous System using a h-NK1 Receptor Binding Assay
(1) Administration of Test Compound and Extraction of the Compound from Brain
Male SD rats were given an i.v. injection of a solution containing a test compound (1 mg/kg). 5 Min later the animals were anesthetized by ether, bled and perfused through the aorta ascendens with 20 ml of saline. The brain was rapidly removed, weighed and homogenized in 4 vol. ice-cold distilled water by using Polytoron (KINEMATICA). To extract the test compound, 500 μl of the homogenate, 100 μl of methanol, 500 μl of 0.1 N NaOH and 4 ml of ethyl acetate were mixed by shaking for 10 min at room temperature. The organic phase (2.5 ml) was recovered by centrifugation at 3,000 rpm for 10 min, dried and dissolved in dimethyl sulfoxide.
(2) h-NK1 Receptor Binding Assay
(a) Crude CHO Cell Membrane Preparation
CHO cells permanently expressing h-NK1 receptors were harvested and homogenized with a Dounce homogenizer at 4° C. in a buffer (0.25 M sucrose, 25 mM Tris-HCl (pH 7.4), 10 mM MgCl2, 1 mM EDTA, 5 μg/ml p-APMSF). The homogenate was centrifuged (500×g, 10 min), and the pellet was resuspended in the same buffer, homogenized, and centrifuged. The two supernatants were combined and centrifuged (100,000×g, 1 hour). The crude cell membranes thus isolated were resuspended in a buffer (25 mM Tris-HCl (pH 7.4), 10 mM MgCl2, 1 mM. EDTA, 5 μg/ml p-APMSF) and stored at −80° C. until use.
(b) ^125I-BH-Substance P Binding to the Prepared Membrane
Cell membranes (6 μg/ml) were incubated with ^125I-BH-Substance P (0.1 nM) with or without the extracted compounds in 0.25 ml of a medium (50 mM Tris-HCl (pH 7.4), 5 mM MnCl2, 20 μg/ml chymostatin, 40 μg/ml bacitracin, 4 μg/ml leupeptin, 5 μg/ml p-APMSF, 200 μg/ml BSA) at 22° C. for 90 min. At the end of the incubation period, the contents were quickly filtered through a Blue Mat 11740 filter (pretreated with 0.1% polyethylenimine for 3 hours prior to use) by using SKATRON Cell Harvester. The filter was then washed with a washing buffer (50 mM Tris-HCl (pH 7.4), 5 mM MnCl2). The radioactivity was counted by using an auto gamma counter (Packard RIASTAR 5420A). All data presented are specific binding defined as that displaceable by 3 μM unlabeled Substance P.

Q: With `Cc1ccc(C[C@@H]2CN(CC#CCN3CCOC[C@@H]3CF)CCN2C(=O)c2cc(C(F)(F)F)cc(C(F)(F)F)c2)cc1C` [70-(1), (2R)-1-[3,5-Bis(trifluoromethyl)benzoyl]-2-(3,4-dimethylbenzyl)-4-[4-((3R)-3-fluoromethylmorpholino)-2-butynyl]piperazine dihydrochloride] as the compound, how does the inhibition at 1 mg/kg read?
A: The inhibition at 1 mg/kg was over 80%.

Q: Which inhibition at 1 mg/kg does the source give for `Cc1ccc(C[C@@H]2CN(CC#CCN3CCOCC(F)C3)CCN2C(=O)c2cc(C(F)(F)F)cc(C(F)(F)F)c2)cc1C` (stereo partly drawn) [70-(2), (2R)-1-[3,5-Bis(trifluoromethyl)benzoyl]-2-(3,4-dimethylbenzyl)-4-[4-(tetrahydro-6-fluoro-1,4-oxazepin-4(5H)-yl)-2-butynyl]piperazine dihydrochloride] here?
A: The inhibition at 1 mg/kg was over 80%.

Q: With `CC[C@H]1COCCN1CC#CCN1CCN(C(=O)c2cc(C(F)(F)F)cc(C(F)(F)F)c2)[C@H](Cc2c[nH]c3ccccc23)C1` [73-(2), (2R)-1-[3,5-Bis(trifluoromethyl)benzoyl]-4-[4-((3S)-3-ethylmorpholino)-2-butynyl]-2-[(1H-indol-3-yl)methyl]piperazine dihydrochloride] as the compound, how does the inhibition at 1 mg/kg read?
A: Its inhibition at 1 mg/kg is over 80%.

Q: For `CC[C@@H]1COCCN1CCN1CCN(C(=O)c2cc(C(F)(F)F)cc(C(F)(F)F)c2)[C@H](Cc2ccc(C)c(C)c2)C1` [80-(1), (2R)-1-[3,5-Bis(trifluoromethyl)benzoyl]-2-(3,4-dimethylbenzyl)-4-[2-((3R)-3-ethylmorpholino)ethyl]piperazine dihydrochloride], which inhibition at 1 mg/kg is on record?
A: The inhibition at 1 mg/kg was over 80%.

Q: For `CC[C@@H]1COCCN1CCN1CCN(C(=O)c2cc(C(F)(F)F)cc(C(F)(F)F)c2)[C@H](Cc2c[nH]c3ccccc23)C1` [81-(10), (2R)-1-[3,5-Bis(trifluoromethyl)benzoyl]-4-[2-((3R)-3-ethylmorpholino)ethyl]-2-[(1H-indol-3-yl)methyl]piperazine dihydrochloride], which inhibition at 1 mg/kg is on record?
A: Its inhibition at 1 mg/kg is over 80%.

Q: Which inhibition at 1 mg/kg does the source give for `COc1ccc(CC2CN(CC#CCN3CCOCC3(C)C)CCN2C(=O)c2cc(C(F)(F)F)cc(C(F)(F)F)c2)cc1C` (stereo not drawn) [85-(3), 1-[3,5-Bis(trifluoromethyl)benzoyl]-4-[4-(3,3-dimethylmorpholino)-2-butynyl]-2-(4-methoxy-3-methylbenzyl)piperazine dihydrochloride] here?
A: Its inhibition at 1 mg/kg is over 80%.

Q: Which inhibition at 1 mg/kg does the source give for `Cc1ccc(C[C@@H]2CN(CC#CCN3CCOCC3(C)C)CCN2C(=O)c2cc(N(C)C)cc(C(F)(F)F)c2)cc1C` [90-(5), (2R)-1-[3-(Dimethylamino)-5-(trifluoromethyl)benzoyl]-2-(3,4-dimethylbenzyl)-4-[4-(3,3-dimethylmorpholino)-2-butynyl]piperazine dihydrochloride] here?
A: The inhibition at 1 mg/kg was over 80%.

Q: Which inhibition at 1 mg/kg does the source give for `O=C(c1cc(C(F)(F)F)cc(C(F)(F)F)c1)N1CCN(CC#Cc2cccnc2)C[C@H]1Cc1c[nH]c2ccccc12` [Example 1-(1), (2R)-1-[3,5-bis(trifluoromethyl)benzoyl]-2-[(1H-indol-3-yl)methyl]-4-[3-(3-pyridyl)-2-propynyl]piperazine] here?
A: The inhibition at 1 mg/kg was over 80%.

Q: Which inhibition at 1 mg/kg does the source give for `Cc1ccc(C[C@@H]2CN(CCOCCN3CCOCC3)CCN2C(=O)c2cc(C(F)(F)F)cc(C(F)(F)F)c2)cc1C` [Example 22, (2R)-1-[3,5-Bis(trifluoromethyl)benzoyl]-2-(3,4-dimethylbenzyl)-4-[2-(2-morpholinoethoxy)ethyl]piperazine dihydrochloride] here?
A: The inhibition at 1 mg/kg was over 80%.

Q: With `O=C(c1cc(C(F)(F)F)cc(C(F)(F)F)c1)N1CCN(CC#CCNCc2cccnc2)C[C@H]1Cc1ccc2ccccc2c1` [Example 30, (2R)-1-[3,5-bis(trifluoromethyl)benzoyl]-4-[4-(3-pyridylmethylamino)-2-butynyl]-2-(2-naphthylmethyl)piperazine trihydrochloride] as the compound, how does the inhibition at 1 mg/kg read?
A: The inhibition at 1 mg/kg was over 80%.

Q: For `CC[C@H]1COCCN1CC#CCN1CCN(C(=O)c2cc(C(F)(F)F)cc(C(F)(F)F)c2)[C@H](Cc2ccc(C)c(C)c2)C1` [Example 38, (2R)-1-[3,5-bis(trifluoromethyl)benzoyl]-4-[4-((3S)-3-ethylmorpholino)-2-butynyl]-2-(3,4-dimethylbenzyl)piperazine dihydrochloride], which inhibition at 1 mg/kg is on record?
A: The inhibition at 1 mg/kg was over 80%.

Q: For `COC[C@H]1COCCN1CCCCN1CCN(C(=O)c2cc(C(F)(F)F)cc(C(F)(F)F)c2)[C@H](Cc2ccc(C)c(C)c2)C1` [Example 82, (2R)-1-[3,5-bis(trifluoromethyl)benzoyl]-2-(3,4-dimethylbenzyl)-4-[4-((3S)-3-methoxymethylmorpholino)butyl]piperazine dihydrochloride], which inhibition at 1 mg/kg is on record?
A: Its inhibition at 1 mg/kg is over 80%.
